Laboratory results reported in US20020110815A1, “Novel genes, compositions and methods for the identification, assessment, prevention, and therapy of human cancers” (priority 2000, published 2002).

Key:
[1] = system: tumor; settings: animal models; cited from earlier work
[2] = system: SK-MEL-5; settings: SK-MEL-5, melanoma, TAXOL sensitive cell line; cited from earlier work
[3] = system: OVCAR-3; settings: OVCAR-3, ovarian, TAXOL sensitive cell line; cited from earlier work
[4] = system: TAXOL sensitive cancer cell lines; assay: TAXOL growth inhibition (GI50), mean of TAXOL sensitive cell lines; assay type: cell-based; settings: Homo sapiens; mean of the nine TAXOL sensitive cell lines of Table C; read-out: Log GI 50 for TAXOL (Mean) (converted)
Protocol: (§1) One group of nine cell lines was determined to be sensitive to TAXOL (Table C), the other group of nine cell lines was determined to be resistant to TAXOL (Table B). Sensitivity to TAXOL was based on known GI50 values for these cells, which for this study was defined as the concentration of TAXOL required to inhibit growth of the cell line by 50%. More precisely, the quantity used in the calculation is the potency measure −log {GI50}. Pooled RNA from TAXOL sensitive cancer cell lines was used as tester against driver RNA pooled from TAXOL resistant cancer cell lines. The results of this subtractive library are shown in SEQ ID NOS: 1-127, SEQ ID NOS: 398-517 and SEQ ID NOS: 746-841. Pooled RNA from TAXOL resistant cancer cell lines was used as tester against driver RNA pooled from TAXOL sensitive cancer cell lines. The results of this subtractive library are shown in SEQ ID NOS: 128-397, SEQ ID NOS: 518-745 and SEQ ID NOS: 842-1046.

[5] = system: ACHN; settings: renal, TAXOL resistant cell line; cited from earlier work
[6] = system: NCI-H522; settings: NCI-H522, non-small cell lung carcinoma, TAXOL sensitive cell line; cited from earlier work
[7] = system: MCF-7/AdrRes; settings: breast, TAXOL resistant cell line; cited from earlier work
[8] = system: SK-MEL-2; settings: SK-MEL-2, melanoma, TAXOL sensitive cell line; cited from earlier work
[9] = system: HOP-92; settings: HOP-92, non-small cell lung carcinoma, TAXOL resistant cell line; cited from earlier work
[10] = system: EKVX; settings: non-small cell lung carcinoma, TAXOL resistant cell line; cited from earlier work
[11] = system: SN12C; settings: renal, TAXOL sensitive cell line; cited from earlier work
[12] = system: MDA-MB-435; settings: MDA-MB-435, breast, TAXOL sensitive cell line; cited from earlier work
[13] = system: OVCAR-4; settings: OVCAR-4, ovarian, TAXOL resistant cell line; cited from earlier work
[14] = system: MALME-3M; settings: melanoma, TAXOL resistant cell line; cited from earlier work
[15] = system: NCI-H460; settings: NCI-H460, non-small cell lung carcinoma, TAXOL sensitive cell line; cited from earlier work
[16] = system: HT-29; settings: HT-29, colon, TAXOL sensitive cell line; cited from earlier work
[17] = system: T-47D; settings: breast, TAXOL resistant cell line; cited from earlier work
[18] = system: HCT-15; settings: HCT-15, colon, TAXOL resistant cell line; cited from earlier work
[19] = system: SK-MEL-28; settings: SK-MEL-28, melanoma, TAXOL resistant cell line; cited from earlier work
[20] = system: MCF-7; settings: MCF-7, breast, TAXOL sensitive cell line; cited from earlier work
[21] = system: TAXOL resistant cancer cell lines; assay: TAXOL growth inhibition (GI50), mean of TAXOL resistant cell lines; assay type: cell-based, human; settings: mean of the nine TAXOL resistant cell lines of Table B
Protocol: as §1

In the case of CC(=O)O[C@@]12CO[C@@H]1C[C@H](O)[C@@]1(C)C(=O)[C@H](O)C3=C(C)[C@@H](OC(=O)[C@H](O)[C@@H](NC(=O)OC(C)(C)C)c4ccccc4)C[C@@](O)([C@@H](OC(=O)c4ccccc4)[C@H]21)C3(C)C [Taxotere, docetaxel], the anti-tumor activity [1] is listed as “good anti-tumor activity”.

In the case of CC(=O)O[C@H]1C(=O)[C@@]2(C)[C@H]([C@H](OC(=O)c3ccccc3)[C@]3(O)C[C@H](OC(=O)[C@H](O)[C@@H](NC(=O)c4ccccc4)c4ccccc4)C(C)=C1C3(C)C)[C@]1(OC(C)=O)CO[C@@H]1C[C@@H]2O [TAXOL], the “Log GI 50 for TAXOL” value [2] is given as −8.4, the “Log GI 50 for TAXOL” value [3] is given as −8.5 and the GI50 [4] is given as 3.16 nM. The “Log GI 50 for TAXOL” value [5] was −5.8, the “Log GI 50 for TAXOL” value [6] was −8.5 and the “Log GI 50 for TAXOL” value [7] was −5.5. For the same molecule, the “Log GI 50 for TAXOL” value [8] was −8.3, the “Log GI 50 for TAXOL” value [9] was −7.2 and the “Log GI 50 for TAXOL” value [10] was −6.6. For the same molecule, the “Log GI 50 for TAXOL” value [11] was −8.5, the “Log GI 50 for TAXOL” value [12] was −8.6 and the “Log GI 50 for TAXOL” value [13] was −6.3. For the same molecule, the “Log GI 50 for TAXOL” value [14] was −6.8, the “Log GI 50 for TAXOL” value [15] was −8.5 and the “Log GI 50 for TAXOL” value [16] was −8.6. The “Log GI 50 for TAXOL” value [17] was −6.9, the “Log GI 50 for TAXOL” value [18] was −6.7 and the “Log GI 50 for TAXOL” value [19] was −7.1. For the same molecule, the “Log GI 50 for TAXOL” value [20] was −8.5 and the “Log GI 50 for TAXOL (Mean)” value [21] was −6.5.
